Source: the supplement of paper PMC10307832

How the values were obtained:
Test in all cases: relative viability (nuclei count vs DMSO), 5 days (fraction); higher = more cells survive
Olaparib + AZD7762 = compound: O=C(c1cc(Cc2n[nH]c(=O)c3ccccc23)ccc1F)N1CCN(C(=O)C2CC2)CC1 [Olaparib] + NC(=O)Nc1cc(-c2cccc(F)c2)sc1C(=O)N[C@H]1CCCNC1 [AZD7762] (partner 0.2 µM)
Procedure, shortened: (§1)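 Each reported value is a median over duplicate plates. It expresses relative viability: treated-well nuclei count divided by vehicle-well nuclei count. Lung cancer cell lines in 1536-well plates were dosed by pin tool a day after seeding, alone with one drug or with a fixed anchor-drug dose plus five library-drug doses (not always all listed) in √10 steps, and nuclei were counted after 5 days.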

Crizotinib + Dasatinib = compound: C[C@@H](Oc1cc(-c2cnn(C3CCNCC3)c2)cnc1N)c1c(Cl)ccc(F)c1Cl [Crizotinib] + Cc1nc(Nc2ncc(C(=O)Nc3c(C)cccc3Cl)s2)cc(N2CCN(CCO)CC2)n1 [Dasatinib] (partner 0.075 µM)
Procedure, shortened: as §1

Olaparib + Crizotinib = compound: O=C(c1cc(Cc2n[nH]c(=O)c3ccccc23)ccc1F)N1CCN(C(=O)C2CC2)CC1 [Olaparib] + C[C@@H](Oc1cc(-c2cnn(C3CCNCC3)c2)cnc1N)c1c(Cl)ccc(F)c1Cl [Crizotinib] (partner 1 µM)
Procedure, shortened: as §1

Olaparib + Vorinostat = compound: O=C(c1cc(Cc2n[nH]c(=O)c3ccccc23)ccc1F)N1CCN(C(=O)C2CC2)CC1 [Olaparib] + O=C(CCCCCCC(=O)Nc1ccccc1)NO [Vorinostat] (partner 1 µM)
Procedure, shortened: as §1

| Cell Line | relative viability (Olaparib + AZD7762; first compound 0.08 µM) | relative viability (Olaparib + AZD7762; first compound 0.253 µM) | relative viability (Olaparib + AZD7762; first compound 2.53 µM) | relative viability (Olaparib + AZD7762; first compound 8 µM) | relative viability (Crizotinib + Dasatinib; first compound 0.01 µM) | relative viability (Crizotinib + Dasatinib; first compound 0.03162 µM) | relative viability (Crizotinib + Dasatinib; first compound 0.1 µM) | relative viability (Crizotinib + Dasatinib; first compound 0.3162 µM) | relative viability (Crizotinib + Dasatinib; first compound 1 µM) | relative viability (Olaparib + Crizotinib; first compound 0.08 µM) | relative viability (Olaparib + Crizotinib; first compound 0.253 µM) | relative viability (Olaparib + Crizotinib; first compound 2.53 µM) | relative viability (Olaparib + Crizotinib; first compound 8 µM) | relative viability (Olaparib + Vorinostat; first compound 0.08 µM) | relative viability (Olaparib + Vorinostat; first compound 0.253 µM) | relative viability (Olaparib + Vorinostat; first compound 2.53 µM) | relative viability (Olaparib + Vorinostat; first compound 8 µM) |
| --- | --- | --- | --- | --- | --- | --- | --- | --- | --- | --- | --- | --- | --- | --- | --- | --- | --- |
| NCI-H1755 | 0.452 | 0.451 | 0.489 | 0.399 | 0.407 | 0.46 | 0.454 | 0.273 | 0.413 | 0.957 | 0.824 | 0.904 | 0.728 | 0.748 | 0.588 | 0.704 | 0.637 |
| NCI-H1915 | 0.544 | 0.561 | 0.404 | 0.245 | 0.307 | 0.338 | 0.315 |  | 0.317 | 0.934 | 0.774 | 0.552 | 0.445 | 0.495 | 0.438 | 0.373 | 0.281 |
| NCI-H1944 | 0.511 | 0.729 | 0.43 | 0.383 | 0.193 | 0.22 | 0.207 | 0.179 | 0.203 | 1.06 | 0.926 | 0.814 | 0.676 | 0.534 | 0.423 | 0.399 | 0.367 |
| NCI-H1975 | 0.793 | 0.727 | 0.705 | 0.765 | 0.347 | 0.381 | 0.349 | 0.387 | 0.43 | 1.04 | 0.906 | 0.945 | 0.916 | 0.739 | 0.649 | 0.717 | 0.624 |
| NCI-H1993 | 0.748 | 0.736 | 1.04 | 0.824 |  | 0.483 | 0.488 | 0.49 | 0.511 | 0.967 | 0.954 | 0.987 | 1.07 | 0.962 | 0.869 | 0.82 | 0.88 |
| NCI-H2085 | 1.1 | 0.875 | 0.962 | 0.881 | 0.209 | 0.232 | 0.228 | 0.282 | 0.28 | 0.911 | 0.657 | 0.74 | 0.77 | 0.844 | 0.703 | 0.749 | 0.616 |
| NCI-H2087 | 1.43 | 1.15 | 1.3 | 0.959 | 0.696 | 0.861 | 0.797 |  | 0.803 | 1.02 | 0.738 | 0.78 | 0.688 | 0.834 | 0.761 | 0.658 | 0.546 |
| NCI-H2126 | 1.08 | 0.942 | 0.959 | 0.948 | 0.484 | 0.646 | 0.569 | 0.557 | 0.545 | 1.12 | 0.967 | 0.957 | 0.969 | 0.803 | 0.773 | 0.819 | 0.777 |
| NCI-H2170 | 0.718 | 0.857 | 0.627 | 0.398 | 0.642 | 0.506 | 0.566 | 0.481 | 0.624 | 1.23 | 1.15 | 1.4 | 1.11 | 0.811 | 0.754 | 0.748 | 0.748 |
| NCI-H2347 | 0.905 | 0.749 | 0.665 | 0.549 | 0.305 | 0.272 | 0.312 | 0.244 | 0.25 | 0.672 | 0.657 | 0.705 | 0.622 | 0.577 | 0.568 | 0.588 | 0.398 |
| NCI-H2405 | 0.86 | 0.741 | 0.632 | 0.636 | 0.244 | 0.237 | 0.192 | 0.217 | 0.196 | 0.948 | 0.83 | 0.769 | 0.809 | 1.28 | 0.957 | 0.997 | 0.926 |
| NCI-H3122 | 1.03 | 0.945 | 0.908 | 0.559 | 0.786 | 0.799 | 0.836 | 0.74 | 0.735 | 0.266 | 0.292 | 0.266 | 0.28 | 1.17 | 0.932 | 0.986 | 0.789 |
| PC-3 [JPC-3] | 0.887 |  | 0.866 | 0.926 | 1.07 | 0.996 | 1.01 | 1.02 | 0.975 | 1 | 0.902 | 1.01 | 0.928 | 0.923 |  | 0.943 | 0.942 |
| PC-14 | 0.4 | 0.334 | 0.355 | 0.205 | 0.286 | 0.241 | 0.245 | 0.201 | 0.238 | 0.883 | 0.824 | 0.849 | 0.657 | 0.889 | 0.579 | 0.709 | 0.34 |
| RERF-LC-KJ | 1.11 | 0.825 | 0.883 | 1.08 | 0.751 | 0.817 | 0.751 | 0.81 | 0.691 | 0.811 | 0.775 | 0.911 | 0.755 | 0.79 | 0.644 | 0.748 | 0.633 |
